Measurements published in patent US10239871B2, “Compounds and methods for regulating integrins” (ADHAERE PHARMACEUTICALS, INC., priority 2012, dated 2019).

Columns and labels:
[1] = test system: Human Umbilical Vein Endothelial Cells; assay: TUNEL assay, HUVEC co-cultured with LA1-activated neutrophils; type: cell-based; conditions: LA1-mediated adhesion of neutrophils
Source text: In support of this argument, neither we nor others studying knock-in animals that express constitutively active mutants of integrins LFA-1 [54, 55] and […]4[…]7 [56] have observed any signs of vascular injury in any experimental model. FIGS. 22A-22E show an absence of apoptosis in co-cultures of LA-1 activated leukocytes and HUVEC cells.

[2] = test system: balloon-induced arterial injury; assay: Balloon-induced arterial injury in rats (neointima); type: in vivo, rat
Method: All surgeries were performed under anesthesia by isoflurane (Baxter). Activating mAb ED7 (4 mg/kg/d), the isotype control mIgG1 (4 mg/kg/d, Rockland) and the leukadherin LA1 (1 mg/kg/d) were each administered intra peritoneally (i.p.) in saline daily until the end of the experiment. Balloon injury in the right iliac artery was inflicted with a 2F Fogarty catheter (Baxter) adapted to a custom angiographic kit (Boston Scientific, Scimed). An aortotomy in the abdominal aorta was made to insert a catheter to the level of the right iliac artery. The balloon was inflated to 1.5 to 1.6 atmospheres and retracted to the arteriotomy site three times. The aortic excision was repaired with eight sutures. The abdominal cavity was closed by planes with an interrupted suture pattern. Arterial specimens were collected 21 days after injury and fixed in 4% formalin-PBS (Sigma-Aldrich) for 5 minutes and analyzed by histology and immunostaining. Neointima were measured in H&E stained slides using ImagePro.
Despite significant technological advances in PCI, restenosis (re-narrowing) secondary to neointimal hyperplasia remains a major complication limiting the success of coronary interventions in 5-25% of patients. The recruitment of inflammatory macrophages and other leukocytes precedes neointimal hyperplasia. The denudation of endothelial cell lining at the site of mechanical vascular injury during a PCI procedure leads to the deposition of fibrin and platelets, where selective binding between the platelet cell surface receptor GP lb[…] and leukocytic CD11b/CD18 leads to the migration and recruitment of these inflammatory cells. Indeed, in experimental models, it has been shown that the genetic ablation of CD11b (CD11b−/− animals) or its blockade (using biological antagonists) can reduce neointima formation after angioplasty or stent implantation. […] Here, this experimental arterial balloon injury model was used to examine the relative efficacy of the two types of agonists, in a head-to-head comparison, on inflammatory responses in vivo. First, the dose-dependence of LA1 in this model system was determined. LA1 was administered at two different doses (0.05 or 1 mg/kg/d, intraperitoneal (i.p.)), or the vehicle (DMSO), in a saline solution to SD male rats 30 minutes prior to injury and continued daily injections for the next three weeks and subsequently measured the extent of vascular injury via tissue histology (FIGS. 14A-14D). Data shown are mean±SEM. *p<0.05, **p<0.001.
Next, in order to examine the relative efficacy of LA1 and ED7, LA1 (1 mg/kg/d) or ED7 (4 mg/kg/d) were administered to SD male rats 30 minutes prior to balloon injury and continued daily for the next 21 days. An isotype control antibody (mIgG1, 4 mg/kg/d) was administered to the control group of animals. […] Data shown are mean±SEM. *p<0.05, ***p<0.0001, ns=not significant.

[3] = molecular target: CD11b/CD18 (Homo sapiens, UniProt P11215); assay: Flow chamber assay (adhesion under wall shear stress); type: cell-based; parameters: expressed in transfected cells; host or cells: 293T cells, transient transfection; conditions: 25 μM LA1, unlike Mn2+
Method: The flow chamber assay was performed as described in literature (Chen, J. F., Salas, A. & Springer, T. A. Bistable regulation of integrin adhesiveness by a bipolar metal ion cluster. Nat. Struct. Biol. 10, 995-1001 (2003)). A polystyrene Petri dish was coated with a 5 mm diameter, 20 μL spot of 20 μg/mL purified h-ICAM-1/Fc (R&D) or 20 μg/mL Fibrinogen in coating buffer (PBS, 10 mM NaHCO3, pH 9.0) for 1 hour at 37° C., followed by 2% BSA in coating buffer for 1 hour at 37° C. to block nonspecific binding sites. Transient transfected 293T cells were washed twice with wash buffer (20 mM Hepes, 150 mM NaCl, pH 7.4, 5 mM EDTA/0.5% BSA), subsequently once with HBS containing 1 mM Ca^2+ and 1 mM Mg^2+ (HBS^++), and finally resuspended at the concentration of 5×10^6/mL in HBS^++ ([…], 0.5% BSA) and kept on ice. Cells were incubated in 2% DMSO with or without 25 μM LA1 at 37° C. for 30 minutes. And subsequently infused in the flow chamber using a Harvard apparatus programmable syringe pump. Cells were allowed to settle down for 5 minutes, and accumulate for 30 seconds at 0.3 dyn/cm^2 and 10 seconds at 0.4 dyn/cm^2. […] The number of cells remaining abound at the end of each 10-sec interval were determined. Rolling velocity at each shear stress was calculated from the average distance traveled by rolling cells in 3 seconds. […]

[4] = test system: MyD88; assay: MyD88 levels in THP-1 cells; type: cell-based, human
Source text: TLR4-mediated signaling requires participation of the adaptor protein MyD88 (43) and MyD88−/− mice are protected from kidney damage following IRI. TLR4 activation leads to the binding and stabilization of adaptor protein MyD88, which recruits downstream kinases to initiate Nf-kB-mediated pro-inflammatory signaling. Subsequently, TLR4 signaling induces a negative feedback loop by endogenous activation of CD11b/CD18, which activates Syk to phosphorylate MyD88, tagging it for ubiquitin-mediated destruction. […] A pilot experiment was carried out to validate this hypothesis by determining the levels of MyD88 in human monocytic THP-1 cells.

[5] = LA1 1 mg/kg/d, ED7 4 mg/kg/d, 21 days

In the case of `O=C(O)c1ccc(-c2ccc(/C=C3\SC(=S)N(Cc4ccccc4)C3=O)o2)cc1` [LA1], the “HUVEC apoptosis (TUNEL)” value [1] is reported as “does not increase HUVEC apoptosis”, the “neointimal hyperplasia vs vehicle” value ([2]; 0.05 or 1 mg/kg/d i.p., three weeks, SD male rats) is reported as “significantly less neointimal hyperplasia” and the “dose dependence of reduction in mechanical vascular injury” value ([2]; 0.05 vs 1 mg/kg/d i.p.) is reported as “dose-dependent reduction”. The “neointima formation compared to the ED7 group” value ([2]; LA1 1 mg/kg/d vs ED7 4 mg/kg/d, 21 days) was “significantly less neointima formation”, the “neointimal hyperplasia (NIH) / mechanical vascular injury, significance vs control group” value [2, 5] was “significant reduction in neointimal hyperplasia” and the “neointimal thickening vs control mAb IgG1-treated group” value [2, 5] was “reduced neointimal thickening”. The “adhesive behavior of CD11b/CD18 transfectants under wall shear stress (conformation induced)” value [3] was “induces priming of CD11b/CD18 and converts it into intermediate conformation”, the “time to complete degradation of MyD88” value ([4]; LA1 alone, absence of LPS) was “less than 2 hours” and the MyD88 degradation ([4]; co-treatment with LPS, THP-1 cells) was “much faster degradation of MyD88”.
